In ChEMBL document CHEMBL1909046, “DrugMatrix in vitro pharmacology data”:

How the values were obtained:
[1] = target: Mitogen-activated protein kinase 3 (Homo sapiens, UniProt P27361); assay: DRUGMATRIX: Protein Serine/Threonine Kinase, ERK1 enzyme inhibition (substrate: Myelin Basic Protein); design: species or system Escherichia coli; conditions: Not Active = under 50% inhibition at 10 µM
[2] = DRUGMATRIX: GABAA, Chloride Channel, TBOB radioligand binding (ligand: [3H] TBOB); assay type: cell membranes, Rattus norvegicus, Wistar, Cerebral cortex, Membrane; conditions: Not Active = under 50% inhibition at 10 µM
Substance-P receptor = Substance-P receptor (Homo sapiens, UniProt P25103); assay type: cell membranes, Membrane; conditions: cho; note: in other assays of this panel Not Active means under 50% inhibition at 10 µM
[3] = DRUGMATRIX: Serotonin (5-Hydroxytryptamine) 5-HT3 radioligand binding (ligand: [3H] GR-65630); assay type: cell membranes, Membrane; conditions: hek293; Not Active = under 50% inhibition at 10 µM
[4] = target: Sodium-dependent dopamine transporter (Homo sapiens, UniProt Q01959); assay: DRUGMATRIX: Dopamine Transporter radioligand binding (ligand: [125I] RTI-55); assay type: cell membranes, CHO-K1, Membrane; conditions: Not Active = under 50% inhibition at 10 µM; for Ki: read-out: Ki
Cytochrome P450 2C19 = Cytochrome P450 2C19 (Homo sapiens, UniProt P33261); conditions: bti-tn-5b1-4; note: in other assays of this panel Not Active means under 50% inhibition at 10 µM
[5] = target: Protein kinase C alpha type (Homo sapiens, UniProt P17252); assay type: cell-based; conditions: sf9;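 note: inhibition of PKCalpha kinase activity measured in an enzyme assay with histone as the phosphorylation substrate; in other assays of this panel Not Active means under 50% inhibition at 10 µM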

Sequence of Sodium-dependent dopamine transporter (Q01959 whole entry): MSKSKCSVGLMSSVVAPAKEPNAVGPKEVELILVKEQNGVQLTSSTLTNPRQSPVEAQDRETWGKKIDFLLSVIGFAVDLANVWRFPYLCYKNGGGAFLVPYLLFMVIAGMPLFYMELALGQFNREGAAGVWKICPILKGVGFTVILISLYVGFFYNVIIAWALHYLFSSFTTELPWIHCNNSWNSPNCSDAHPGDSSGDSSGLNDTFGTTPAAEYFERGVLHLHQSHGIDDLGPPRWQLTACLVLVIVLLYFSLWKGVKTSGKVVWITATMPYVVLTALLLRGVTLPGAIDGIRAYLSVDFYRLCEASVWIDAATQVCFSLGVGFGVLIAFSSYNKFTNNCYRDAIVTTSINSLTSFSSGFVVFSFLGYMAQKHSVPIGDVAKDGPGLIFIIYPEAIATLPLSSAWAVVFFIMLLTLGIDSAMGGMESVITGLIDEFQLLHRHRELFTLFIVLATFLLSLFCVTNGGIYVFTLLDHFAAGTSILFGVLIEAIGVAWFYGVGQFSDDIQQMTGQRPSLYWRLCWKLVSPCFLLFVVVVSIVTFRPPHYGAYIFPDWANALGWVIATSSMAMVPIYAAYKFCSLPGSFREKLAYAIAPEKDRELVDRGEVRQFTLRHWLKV
Sequence of Substance-P receptor (P25103 whole entry): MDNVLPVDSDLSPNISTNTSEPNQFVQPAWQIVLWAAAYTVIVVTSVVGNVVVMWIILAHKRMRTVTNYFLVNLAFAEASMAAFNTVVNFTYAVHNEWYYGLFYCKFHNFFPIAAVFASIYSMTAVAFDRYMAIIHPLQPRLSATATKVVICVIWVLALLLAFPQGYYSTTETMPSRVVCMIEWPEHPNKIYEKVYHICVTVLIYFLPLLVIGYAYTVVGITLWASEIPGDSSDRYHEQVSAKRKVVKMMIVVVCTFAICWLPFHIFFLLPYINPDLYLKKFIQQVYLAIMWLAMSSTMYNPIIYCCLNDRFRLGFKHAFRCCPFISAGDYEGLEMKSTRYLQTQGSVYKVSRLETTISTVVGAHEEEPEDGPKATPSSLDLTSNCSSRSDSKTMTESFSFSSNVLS
Sequence of Cytochrome P450 2C19 (P33261 whole entry): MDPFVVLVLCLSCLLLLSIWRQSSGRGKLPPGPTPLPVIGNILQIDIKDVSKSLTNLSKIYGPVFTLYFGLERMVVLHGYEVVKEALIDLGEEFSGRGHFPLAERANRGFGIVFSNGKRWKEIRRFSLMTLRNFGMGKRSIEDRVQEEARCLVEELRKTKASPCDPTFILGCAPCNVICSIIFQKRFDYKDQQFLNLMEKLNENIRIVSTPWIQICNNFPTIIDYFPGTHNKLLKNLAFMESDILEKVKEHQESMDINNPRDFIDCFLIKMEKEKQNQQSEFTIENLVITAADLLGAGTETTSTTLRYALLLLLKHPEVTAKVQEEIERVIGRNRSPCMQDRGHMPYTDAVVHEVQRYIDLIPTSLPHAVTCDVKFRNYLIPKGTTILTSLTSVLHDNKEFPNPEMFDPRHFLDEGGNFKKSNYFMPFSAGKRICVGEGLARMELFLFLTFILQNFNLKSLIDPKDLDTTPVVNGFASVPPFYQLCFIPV
Sequence of Mitogen-activated protein kinase 3 (P27361 whole entry): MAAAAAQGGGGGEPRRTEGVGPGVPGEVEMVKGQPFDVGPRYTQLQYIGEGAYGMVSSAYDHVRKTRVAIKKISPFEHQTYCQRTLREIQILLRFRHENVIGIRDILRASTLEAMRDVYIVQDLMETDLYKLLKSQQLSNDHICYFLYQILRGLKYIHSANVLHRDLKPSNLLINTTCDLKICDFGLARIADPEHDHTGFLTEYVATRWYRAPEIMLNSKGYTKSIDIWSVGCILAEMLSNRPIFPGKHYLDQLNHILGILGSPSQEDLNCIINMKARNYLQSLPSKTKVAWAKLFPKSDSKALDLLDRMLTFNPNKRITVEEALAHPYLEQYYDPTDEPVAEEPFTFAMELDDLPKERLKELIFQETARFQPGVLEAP

| Compound | IC50 [1] | IC50 [2] | Ki [2] | IC50 (Substance-P receptor) | IC50 [3] | Ki [3] | IC50 ([4]; cho-k1) | IC50 (Cytochrome P450 2C19) | Ki (Cytochrome P450 2C19) | IC50 [5] | IC50 ([4]; read-out: IC50) [µM] | Ki [4] [µM] | IC50 ([1]; read-out: IC50) [µM] |
| --- | --- | --- | --- | --- | --- | --- | --- | --- | --- | --- | --- | --- | --- |
| CC(C)(C#N)c1cc(Cn2cncn2)cc(C(C)(C)C#N)c1 [ANASTROZOLE] | Not Active | Not Active | Not Active | Not Active | Not Active | Not Active | Not Active | Not Active | Not Active | Not Active |  |  |  |
| CC12CCC(CC1=O)C2(C)C (centres undefined) [CAMPHOR] | Not Active | Not Active | Not Active | Not Active | Not Active | Not Active | Not Active | Not Active | Not Active | Not Active |  |  |  |
| CC12CCC(CC1)C(C)(C)O2 [EUCALYPTOL] | Not Active | Not Active | Not Active | Not Active | Not Active | Not Active | Not Active | Not Active | Not Active | Not Active |  |  |  |
| Cc1ccnc2c1NC(=O)c1cccnc1N2C1CC1 [NEVIRAPINE] | Not Active | Not Active | Not Active | Not Active | Not Active | Not Active | Not Active | Not Active | Not Active | Not Active |  |  |  |
| Clc1cc(Cl)c(OCC#CI)cc1Cl [HALOPROGIN] | Not Active | Not Active | Not Active | Not Active | Not Active | Not Active |  | Not Active | Not Active | Not Active | 1.97 | 1.56 |  |
| Oc1ccccc1 [PHENOL] | Not Active | Not Active | Not Active | Not Active | Not Active | Not Active | Not Active | Not Active | Not Active | Not Active |  |  |  |
| CCCCCCNC(=O)n1cc(F)c(=O)[nH]c1=O [CARMOFUR] |  | Not Active | Not Active | Not Active | Not Active | Not Active | Not Active | Not Active | Not Active | Not Active |  |  | 6.12 |
| Nc1ccc(C(=O)O)c(O)c1 [AMINOSALICYLIC ACID] | Not Active | Not Active | Not Active | Not Active | Not Active | Not Active | Not Active | Not Active | Not Active | Not Active |  |  |  |
| COc1cc(NC(C)CCCN)c2ncccc2c1 (centres undefined) [PRIMAQUINE] | Not Active | Not Active | Not Active | Not Active | Not Active | Not Active | Not Active | Not Active | Not Active | Not Active |  |  |  |
| Cc1cc(C(C)(C)C)c(O)c(C)c1CC1=NCCN1 [OXYMETAZOLINE] | Not Active | Not Active | Not Active | Not Active | Not Active | Not Active | Not Active | Not Active | Not Active | Not Active |  |  |  |
| O=c1[nH]cnc2c1ncn2[C@H]1CC[C@@H](CO)O1 [DIDANOSINE] | Not Active | Not Active | Not Active | Not Active | Not Active | Not Active | Not Active | Not Active | Not Active | Not Active |  |  |  |
| CC(=O)[C@]1(O)Cc2c(O)c3c(c(O)c2[C@@H](O[C@H]2C[C@H](N)[C@H](O)[C@H](C)O2)C1)C(=O)c1ccccc1C3=O [IDARUBICIN] | Not Active | Not Active | Not Active | Not Active | Not Active | Not Active | Not Active | Not Active | Not Active | Not Active |  |  |  |
| COC(=O)Nc1nc2ccc(Sc3ccccc3)cc2[nH]1 [FENBENDAZOLE] | Not Active | Not Active | Not Active | Not Active | Not Active | Not Active | Not Active | Not Active | Not Active | Not Active |  |  |  |
| CC(C)(c1ccc(O)cc1)c1ccc(O)cc1 [BISPHENOL A] | Not Active | Not Active | Not Active | Not Active | Not Active | Not Active |  | Not Active | Not Active | Not Active | 19 | 15.1 |  |
| C=C(Cl)Cl [1,1-DICHLOROETHENE] | Not Active | Not Active | Not Active | Not Active | Not Active | Not Active | Not Active | Not Active | Not Active | Not Active |  |  |  |
| O=C(O)CCc1nc(-c2ccccc2)c(-c2ccccc2)o1 [OXAPROZIN] | Not Active | Not Active | Not Active | Not Active | Not Active | Not Active | Not Active | Not Active | Not Active | Not Active |  |  |  |
| NCC(CC(=O)O)c1ccc(Cl)cc1 (centres undefined) [BACLOFEN] | Not Active | Not Active | Not Active | Not Active | Not Active | Not Active | Not Active | Not Active | Not Active | Not Active |  |  |  |
| CC[C@H]1OC(=O)[C@H](C)[C@@H](O[C@H]2C[C@@](C)(OC)[C@@H](O)[C@H](C)O2)[C@H](C)[C@@H](O[C@@H]2O[C@H](C)C[C@H](N(C)C)[C@H]2O)[C@](C)(O)C[C@@H](C)C(=O)[C@H](C)[C@@H](O)[C@]1(C)O [ERYTHROMYCIN] | Not Active | Not Active | Not Active | Not Active | Not Active | Not Active | Not Active | Not Active | Not Active | Not Active |  |  |  |
| C=CCO [ALLYL ALCOHOL] | Not Active | Not Active | Not Active | Not Active | Not Active | Not Active | Not Active | Not Active | Not Active | Not Active |  |  |  |
| C[C@@H]1[C@H](O)[C@@H](C)/C=C/C=C/C=C/C=C/C=C/C=C/C=C/[C@H](O[C@@H]2O[C@H](C)[C@@H](O)[C@H](N)[C@@H]2O)C[C@@H]2O[C@](O)(C[C@@H](O)C[C@@H](O)[C@H](O)CC[C@@H](O)C[C@@H](O)CC(=O)O[C@H]1C)C[C@H](O)[C@H]2C(=O)O [AMPHOTERICIN B] |  | Not Active | Not Active | Not Active | Not Active | Not Active | Not Active | Not Active | Not Active | Not Active |  |  |  |
| COc1cc([C@@H]2c3cc4c(cc3[C@H](O)[C@H]3COC(=O)[C@H]23)OCO4)cc(OC)c1OC [PODOFILOX] | Not Active | Not Active | Not Active | Not Active | Not Active | Not Active | Not Active |  |  | Not Active |  |  |  |
| CN(Cc1cc(Br)cc(Br)c1N)C1CCCCC1 [BROMHEXINE] |  | Not Active | Not Active | Not Active | Not Active | Not Active | Not Active | Not Active | Not Active | Not Active |  |  |  |
| C[C@H]1C[C@H]2[C@@H]3CCC4=CC(=O)C=C[C@]4(C)[C@@]3(F)[C@@H](O)C[C@]2(C)[C@@]1(O)C(=O)CO [BETAMETHASONE] | Not Active | Not Active | Not Active | Not Active | Not Active | Not Active | Not Active |  |  | Not Active |  |  |  |
| NS(=O)(=O)c1cc(C(=O)O)c(NCc2ccco2)cc1Cl [FUROSEMIDE] | Not Active | Not Active | Not Active | Not Active | Not Active | Not Active | Not Active |  |  | Not Active |  |  |  |
| CCN(CCO)CCCC(C)Nc1ccnc2cc(Cl)ccc12 (centres undefined) [HYDROXYCHLOROQUINE] | Not Active | Not Active | Not Active | Not Active | Not Active | Not Active | Not Active |  |  | Not Active |  |  |  |
| CC(C)NCC(O)COc1ccc(CC(N)=O)cc1 (centres undefined) [ATENOLOL] | Not Active | Not Active | Not Active | Not Active | Not Active | Not Active | Not Active |  |  | Not Active |  |  |  |
| CNC[C@H](O)c1ccc(O)c(O)c1 [EPINEPHRINE] | Not Active | Not Active | Not Active | Not Active |  |  | Not Active | Not Active | Not Active | Not Active |  |  |  |
| CC1(COc2ccc(CC3SC(=O)NC3=O)cc2)CCCCC1 (centres undefined) [CIGLITAZONE] | Not Active | Not Active | Not Active | Not Active | Not Active | Not Active | Not Active |  |  | Not Active |  |  |  |
| O=C(O)CNCP(=O)(O)O [GLYPHOSATE] | Not Active | Not Active | Not Active | Not Active | Not Active | Not Active | Not Active |  |  | Not Active |  |  |  |
